Measured values taken from patent publication US10065973B2, “Substituted aminothiazolopyrimidinedione for the treatment and prophylaxis of virus infection” (Hoffmann-La Roche Inc., priority 2016, dated 2018).

test system: human hepatocytes; assay: Metabolic conversion of prodrugs to active form in human hepatocytes; type: in vitro ADME; settings: active metabolites Example 10-A and penciclovir, respectively
Source text: Metabolism of Prodrugs: Compounds of Formula (II) A study was undertaken to evaluate the metabolic conversion of prodrugs, compounds of formula (II) or (IIa), to compounds of formula (I) or (Ia) of the present invention. The produgs, compounds of formula (II) or (IIa), can be metabolized to the active compound of formula (I) or (Ia) and other compounds of the invention in the body if they are served as prodrugs. Hepatocytes are often used to assess the degree of metabolic conversion of prodrugs in the body of animal or human. A study was undertaken to evaluate the metabolic conversion of prodrug Example 21, Example 22, Example 23, Example 24, Example 25 and Example 26, to the corresponding active form, Example 10-A, in the presence of human hepatocytes. The formation of active form, Example 10-A, was monitored in the study. For comparison, the metabolic conversion of famciclovir to penciclovir was also assessed. Cryopreserved hepatocytes plating medium (Cat.#: PY-HMD-03) was purchased from RILD Research Institute for Liver Diseases (Shanghai) Co. Ltd. Cryopreserved human hepatocyte (Cat.#: X008005, Lot#:VRR) was purchased from BioreclamationIVT (Baltimore, Md.). The stock hepatocyte suspension was prepared from cryopreserved hepatocytes in plating medium at the concentration of 1.8×10^6 cells/mL. Compounds were dissolved in DMSO to make 10 mM stock solutions. 10 μL of the stock solution was diluted to 990 μL plating medium to get a 100 μM working solution. Reaction suspensions were prepared in 24-well cell culture plate by mixing 200 μL of hepatocytes suspension (human) and 200 μL of working solution. The final incubation contained 0.9×10^6 cells/mL and 50 μM compound. The above mixtures were incubated at 37° C. in a humidified 5% CO2 atmosphere, with a 900 rpm shaking. After 180 min of incubation, 200 μL of the incubation mixture was transferred to 1.5 mL tube and quenched with 400 μL stop solution (ice-cold acetonitrile with 0.2 μM Tolbutamide as internal standard). The samples were centrifuged at 14000 rpm for 10 minutes and the resultant supernatants were subjected to LC-MS/MS analysis. The calibration curves were prepared in the following way. To a 200 μL of cell suspension (cell density of 1.8 million cells/mL), 198 μL of hepatocyte plating medium and 2 μL of the appropriate concentration of the compound in DMSO were added. Samples were mixed thoroughly and 200 μL of the mixture was transferred to 400 μL of the stop solution (see above). The standard curve range is from 1 μM to 25 μM. The compounds were quantified on an API5500 […] instrument in the ESI-Positive MRM mode.

Row | Structure (SMILES) | metabolic conversion to active metabolite in human hepatocytes
1 | CC[C@H](O)[C@@H]1C[C@@H]([C@@H](C)OC(C)=O)[C@H](n2c(=O)sc3cnc(N)nc32)O1 [Example 21, [(1R)-1-[(2R,3S,5S)-2-(5-Amino-2-oxo-thiazolo[4,5-d]pyrimidin-3-yl)-5-[(1S)-1-hydroxypropyl]tetrahydrofuran-3-yl]ethyl] acetate] | metabolized to yield the corresponding active metabolites
2 | CC[C@H](OC(C)=O)[C@@H]1C[C@@H]([C@@H](C)O)[C@H](n2c(=O)sc3cnc(N)nc32)O1 [Example 22, [(1S)-1-[(2S,4S,5R)-5-(5-Amino-2-oxo-thiazolo[4,5-d]pyrimidin-3-yl)-4-[(1R)-1-hydroxyethyl]tetrahydrofuran-2-yl]propyl] acetate] | metabolized to yield the corresponding active metabolites
3 | CC[C@H](O)[C@@H]1C[C@@H]([C@@H](C)OC(=O)C(C)C)[C@H](n2c(=O)sc3cnc(N)nc32)O1 [Example 23, [(1R)-1-[(2R,3S,5S)-2-(5-Amino-2-oxo-thiazolo[4,5-d]pyrimidin-3-yl)-5-[(1S)-1-hydroxypropyl]tetrahydrofuran-3-yl]ethyl] 2-methylpropanoate] | metabolized to yield the corresponding active metabolites
4 | CC[C@H](O)[C@@H]1C[C@@H]([C@@H](C)OC(=O)C(C)(C)C)[C@H](n2c(=O)sc3cnc(N)nc32)O1 [Example 24, [(1R)-1-[(2R,3S,5S)-2-(5-Amino-2-oxo-thiazolo[4,5-d]pyrimidin-3-yl)-5-[(1S)-1-hydroxypropyl]tetrahydrofuran-3-yl]ethyl] 2,2-dimethylpropanoate] | metabolized to yield the corresponding active metabolites
5 | CC[C@H](O)[C@@H]1C[C@@H]([C@@H](C)OC(=O)CC(C)C)[C@H](n2c(=O)sc3cnc(N)nc32)O1 [Example 25, [(1R)-1-[(2R,3S,5S)-2-(5-Amino-2-oxo-thiazolo[4,5-d]pyrimidin-3-yl)-5-[(1S)-1-hydroxypropyl]tetrahydrofuran-3-yl]ethyl] 3-methylbutanoate] | metabolized to yield the corresponding active metabolites
6 | CCOC(=O)O[C@H](C)[C@@H]1C[C@@H]([C@@H](O)CC)O[C@H]1n1c(=O)sc2cnc(N)nc21 [Example 26, [(1R)-1-[(2R,3S,5S)-2-(5-Amino-2-oxo-thiazolo[4,5-d]pyrimidin-3-yl)-5-[(1S)-1-hydroxypropyl]tetrahydrofuran-3-yl]ethyl] ethyl carbonate] | metabolized to yield the corresponding active metabolites
7 | CC(=O)OCC(CCn1cnc2cnc(N)nc21)COC(C)=O [Famciclovir, famciclovir, reference compound] | metabolized to yield the corresponding active metabolites
